Active and inactive are the calls of the source. The calls are words filed in the database; no cut-off is given here.
Legend:
[1] = tested on: RAW264.7; assay: Cytotoxicity against mouse RAW264.7 cells assessed as cell viability at 10 to 20 uM after 24 hrs by MTT assay; type: cell-based; conditions: raw264.7, 24 h
[2] = tested on: RAW264.7; assay: Antiinflammatory activity in mouse RAW264.7 cells assessed as inhibition of LPS-induced NOS2 expression at 20 uM treated 30 mins before LPS stimulation measured after 24 hrs by Western blotting; type: functional, cell-based
[3] = tested on: RAW264.7; assay: Antiinflammatory activity in mouse RAW264.7 cells assessed as inhibition of LPS-induced COX2 expression at 20 uM treated 30 mins before LPS stimulation measured after 24 hrs by Western blotting; type: functional, cell-based
[4] = tested on: RAW264.7; assay: Antiinflammatory activity in mouse RAW264.7 cells assessed as inhibition of LPS-induced nitric oxide production treated 30 mins before LPS stimulation measured after 24 hrs by Griess assay; type: functional, cell-based
[5] = tested on: RAW264.7; assay: Antiinflammatory activity in mouse RAW264.7 cells assessed as inhibition of LPS-induced COX2 expression at 10 to 20 uM treated 30 mins before LPS stimulation measured after 24 hrs by Western blotting; type: functional, cell-based
[6] = tested on: RAW264.7; assay: Antiinflammatory activity in mouse RAW264.7 cells assessed as inhibition of LPS-induced NOS2 expression at 10 to 20 uM treated 30 mins before LPS stimulation measured after 24 hrs by Western blotting; type: functional, cell-based
[7] = tested on: RAW264.7; assay: Inhibition of NFkappaB activation in mouse RAW264.7 cells assessed as reduction of LPS-induced p65 level in nucleus at 20 uM treated 30 mins before LPS stimulation measured after 24 hrs by Western blotting; type: cell-based
[8] = tested on: RAW264.7; assay: Inhibition of NFkappaB activation in mouse RAW264.7 cells assessed as reduction of LPS-induced IkappaBbeta level in cytosol at 20 uM treated 30 mins before LPS stimulation measured after 24 hrs by Western blotting; type: cell-based
[9] = tested on: RAW264.7; assay: Inhibition of NFkappaB activation in mouse RAW264.7 cells assessed as reduction of LPS-induced IkappaBalpha level in cytosol at 20 uM treated 30 mins before LPS stimulation measured after 24 hrs by Western blotting; type: cell-based

For `COc1cc(-n2c(-c3cccc(F)c3)nc3cc(OC)c4ccccc4c32)c(OC)c2ccccc12`, the Activity [1] was “Non-toxic”.

For `COc1cc(-n2c(-c3ccccc3)nc3cc(OC)c4ccccc4c32)c(OC)c2ccccc12`, the inhibition [2] was “inactive”, the Activity [1] was “Non-toxic” and the inhibition [3] was “inactive”.

In the case of `COc1cc(-n2c(-c3ccc([N+](=O)[O-])cc3)nc3cc(OC)c4ccccc4c32)c(OC)c2ccccc12`, the Activity [1] is reported as “Non-toxic”.

`COc1cc(-n2c(-c3cccnc3)nc3cc(OC)c4ccccc4c32)c(OC)c2ccccc12` was tested, and the IC50 [4] was 8.4 µM, the inhibition [4] was “Dose-dependent effect” and the inhibition [5] was “Active”. For the same compound, the inhibition [6] was “Active”, the inhibition [7] was “Active” and the Activity [1] was “Non-toxic”. For the same compound, the inhibition [8] was “Active” and the inhibition [9] was “Active”.

With `COc1cc2nc(-c3ccc([N+](=O)[O-])cc3)n(-c3ccccc3Br)c2c2ccccc12` the Activity [1] was “Non-toxic”.

`COc1cc(-n2c(-c3ccsc3)nc3cc(OC)c4ccccc4c32)c(OC)c2ccccc12` was tested, and the Activity [1] was “Non-toxic”.

From ChEMBL document CHEMBL3616470, “Biological evaluation of angular disubstituted naphthoimidazoles as anti-inflammatory agents” (Bioorg Med Chem Lett, 2015)
